Results published in article PMC7076515, “Impact of Mucin on Drug Diffusion: Development of a Straightforward In Vitro Method for the Determination of Drug Diffusivity in the Presence of Mucin” (Pharmaceutics, 2020).
“Also recorded” adds a separate entry of the source.

Tests used:
[1] = test system: mucin from porcine stomach type III; assay: UV-visible localized spectroscopy: diffusion from mucin dispersions into water (Drel), and of mucin itself; type: physicochemical; settings: compared to the absence of mucin
Description: Mucin type III from porcine stomach was dispersed in PBS 65 mOsm/kg (pH 7.4) to obtain 0.1, 0.3 and 0.6% (w/w) mucin dispersions.
In brief, Fick’s second law of diffusion was analytically solved (Equation (1)) assuming times (t) and positions (x) such that t ≪ h2/D and x ≪ h (where h is the full length of the cuvette occupied by water, 3.30 cm). […] (1) c(x,t)=2A/π e^−x^2/2σ^2+4Dt/2σ^2+4Dt

[2] = UV-visible localized spectroscopy: drug diffusion coefficient in water (D0); settings: no mucin; drug in PBS 65 mOsm/kg pH 7.4 injected into water; 23–25 °C; average of two parallel experiments
[3] = parameters: method as in Drugbank [15]; settings: ref Drugbank [15], cited from earlier work
[4] = test system: purified gastric mucin type II; parameters: method as in PMID 9188047, PMID 9487548; settings: ref [24],[25]; cited from earlier work
[5] = parameters: method as in PMID 9188047, PMID 9487548; settings: ref [24],[25]; cited from earlier work

| Compound | D Reduction (%) ([1]; MUC 0.0%) | D Reduction (%) ([1]; MUC 0.1% w/w) | D Reduction (%) ([1]; MUC 0.3% w/w) | D Reduction (%) ([1]; MUC 0.6% w/w) | D0 (diffusion coefficient in plain water) [2] | Charge at pH 7.4 [3] | pKa [3] | Diffusion in purified gastric mucin versus phosphate buffer [4] | Diffusion in native pig intestinal mucus [5] |
| --- | --- | --- | --- | --- | --- | --- | --- | --- | --- |
| CC(C)NCC(O)COc1ccc(CC(N)=O)cc1 (stereo not shown) [ATN, Atenolol] | 0 | 24 | 47 | 63 | 5.81 10^−6 cm^2/s |  |  |  |  |
| Cn1c(=O)c2c(ncn2C)n(C)c1=O [CAF, caffeine] | 0 | 33 | 51 | 67 | 9.07 10^−6 cm^2/s | 0 |  |  |  |
| C[C@]12CCC(=O)C=C1CC[C@@H]1[C@@H]2[C@@H](O)C[C@@]2(C)[C@H]1CC[C@]2(O)C(=O)CO [HYD, hydrocortisone] | 0 | 17 | 36 | 37 | 6.44 10^−6 cm^2/s | 0 | 12.6 | comparable to the one in phosphate buffer; also recorded: not hindered compared to phosphate buffer | impaired to a higher extent; also recorded: slow down the diffusion |
| COc1ccc2cc([C@H](C)C(=O)O)ccc2c1 [NPR, naproxen] | 0 | 25 | 53 | 65 | 8.02 10^−6 cm^2/s |  |  |  |  |
